Laboratory results published in BindingDB's records for doi:10.1021/acs.jnatprod.6b00262 (Kindai University, 2016).

assay: Antagonist activity at human EGFP-fused CCR3 expressed in mouse L1.2 cells assessed as inhibition of CCL11-induced chemotaxis measured after 1.5 hrs by PicoGreen dsDNA reagent-based assay

Compound	EC50
C/C=C/c1cc(OC)c2c(c1)[C@@H](C)[C@H](c1cc(OC)c(O)c(OC)c1)O2	1600 nM
C=CCc1cc(OC)c(O[C@@H](C)[C@H](OC(C)=O)c2ccc(OC)c(OC)c2)c(OC)c1	1400 nM
C=CCc1cc(OC)c(O[C@H](C)[C@@H](O)c2cc(OC)c(O)c(OC)c2)c(OC)c1	1500 nM
COC(=O)[C@H](Cc1ccc([N+](=O)[O-])cc1)NC(=O)c1cccc2ccccc12 [(S)-2-[(Naphthalene-1-carbonyl)-amino]-3-(4-nitro-phenyl)-propionic acid methyl ester]	780 nM
